Biological target: T1, PFKL (Homo sapiens, UniProt P17858)
T1 construct: made in house; host or cells: Sf9 insect cells (baculovirus, Bac-to-Bac)
T1 sequence (P17858 1-780): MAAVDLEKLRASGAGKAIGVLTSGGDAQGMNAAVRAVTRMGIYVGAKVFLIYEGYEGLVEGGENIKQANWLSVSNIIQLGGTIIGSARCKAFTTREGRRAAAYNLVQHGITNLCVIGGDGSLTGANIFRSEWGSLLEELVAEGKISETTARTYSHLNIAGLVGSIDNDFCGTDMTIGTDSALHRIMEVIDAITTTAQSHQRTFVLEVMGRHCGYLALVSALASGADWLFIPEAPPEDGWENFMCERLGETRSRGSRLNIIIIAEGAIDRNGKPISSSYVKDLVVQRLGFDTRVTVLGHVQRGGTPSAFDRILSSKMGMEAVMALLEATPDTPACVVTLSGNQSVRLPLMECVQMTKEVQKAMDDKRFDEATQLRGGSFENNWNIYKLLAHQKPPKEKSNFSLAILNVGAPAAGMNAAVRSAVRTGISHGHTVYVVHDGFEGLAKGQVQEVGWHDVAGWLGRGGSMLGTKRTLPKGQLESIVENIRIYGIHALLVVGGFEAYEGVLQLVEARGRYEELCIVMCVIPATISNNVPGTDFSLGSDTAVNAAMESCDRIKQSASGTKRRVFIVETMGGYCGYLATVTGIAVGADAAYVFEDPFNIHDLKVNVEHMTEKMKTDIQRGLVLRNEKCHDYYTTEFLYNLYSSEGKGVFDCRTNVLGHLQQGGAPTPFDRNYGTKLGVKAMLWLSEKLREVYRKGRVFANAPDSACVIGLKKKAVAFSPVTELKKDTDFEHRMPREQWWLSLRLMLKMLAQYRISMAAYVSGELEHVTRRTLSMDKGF
Assay: Thermal inactivation assay of PFKL
Type: biochemical
Conditions: 35°C; 200 μM FBP, 200 nM NA-11
Procedure: Thermal inactivation assays were performed as previously described for PFKP, with modifications to account for the decreased stability of PFKL ([Sánchez-Martínez et al., 2000]). PFKL was diluted to 10 ng/mL, with a final buffer composition of 53.3 mM HEPES, 100 mM KCl, 0.167 mM DTT, 83.3 μM ammonium sulfate, 0.83% glycerol, 0.170 mM ATP, and 16.7 mM EDTA. Samples were incubated at 35°C. At the times indicated, samples were removed and residual PFK1 activity measured using the PK/LDH auxiliary enzyme assay described above with 125 μM ATP and 5 mM F6P. To determine if small molecule ligands altered PFKL stability, 200 μM FBP and 200 nM NA-11 were added.

With CC(=O)Nc1ccc2c(c1)OCc1cc(-c3ccccc3C#CCCCO)nn1C2 [NA-11] the “protection of PFKL from thermal inactivation” value was “did not”.
